Measurements published in patent US20160376659A1, “Breast Cancer Biomarker” (The University of Manchester, priority 2015, published 2016).
“Also recorded” adds a separate entry of the source.

Experiments:
[1] = system: Early (HBC×34) and metastatic (BB3RC31) BC estrogen-dependent patient-derived xenograft tumors; experiment: 14 day in vivo window treatment of ER+ PDX tumors: tumor growth, Ki67, ER, PR; parameters: species or system mice; details: for proliferation marker Ki67 / tumor growth: 14 days, tamoxifen 10 mg/kg/day oral, fulvestrant 200 mg/kg/week s.c., RO4929097 3 mg/kg/day oral; for ER and PR protein expression levels: PDX tumors, 14 days in vivo, immunohistochemistry
Protocol: (§1) Early (HBC×34) and metastatic (BB3RC31) BC estrogen-dependent PDXs were administered with 8 ug/ml of 17-beta estradiol in drinking water at all times and were treated with drugs when tumors reached 200-300 mm^3. Experiments were performed using PDX tumors between passages 5 and 8. Animal weight and tumor size was measured bi-dimensionally using callipers twice a week. The HBC×34 model was kindly provided by Dr Elisabetta Marangoni from Institute Curie, Paris (Cottu et al., 2012).
(§2) Tamoxifen citrate (Sigma, T9262, 10 mg/kg/day) and RO4929097 (Cellagen Technology, 3 mg/kg/day) were administered by oral gavage (0.1 ml/dose) on a five day from seven basis (weekends excluded) for fourteen days. Tamoxifen citrate and RO4929097 were prepared in 1% carboxymethylcellulose (Sigma, C9481) dissolved in distilled water. Fulvestrant (kindly provided by Astrazeneca, 200 mg/kg/week) was administered by subcutaneous injection (0.1 ml/dose) on a weekly basis for fourteen days. The HBC×22 and HBC×34 tamoxifen-resistant PDXs have been established by our collaborators in the Curie Institute (Cottu el al, 2014) and were treated for fourteen days in the presence or absence of the gamma-secretase inhibitor RO4929097 (10 mg/kg/day, oral gavage). Xenografts were collected in ice cold DMEM media for live cell assays, histological analysis and RNA and protein extraction. Patient-derived xenograft single cell suspension was obtained using a collagenase-hyaluronidase mixture for digestion (Stem Cell Technologies).
Tissue microarrays (TMAs) were constructed from all formalin fixed and paraffin embedded tissue. 3×1 mm cores were taken per tissue block, and TMAs were cut into 3 μm thick sections and analysed by immunohistochemistry. Antibodies utilised were anti-ERα (Thermo, SP1), anti-PgR (Dako, M3569), anti-Ki67 (Dako, M7240), anti-HER2 (Vector Laboratories, VP-C380), anti-Hes1 (Abcam, ab108937) and anti-ALDH1 (BD Biosciences, 611195). Antigen retrieval was performed either using Target Retrieval Solution pH9 (Dako S2367, for ER, PR, Ki67 and ALDH1), Target Retrieval Solution pH6 (Dako S1699, for Hes1) or in 10 mM Citrate buffer (for HER2) in a […] water bath for 25 mins. All antibodies were detected using Dako EnVision Detection System Peroxidase/DAB, Rabbit/Mouse (Dako, K5007) and sections were counterstained with haematoxylin. Staining was quantified using Definiens Tissue Studio software. The percentage of positive epithelial cells was scored on 3 cores per tissue sample. For ER immunocytochemistry, approximately 50.000 cells were FACS sorted and then cytospun for 5 min at 80 G on poly-lysine coated slides. Cells were fixed with 4% paraformaldehyde (5 min), permeabilised with acetone (4 min) and methanol (2 min), and then blocked for 10 min with Peroxidase Blocking Reagent (Dako, S2001) and further 10 min with 3% goat serum before incubation with primary antibody. ER was then detected as described above for immunohistochemistry.

[2] = system: Early (HBC×34) and metastatic (BB3RC31) PDX tumors; experiment: BCSC activity (MFE, ALDEFLUOR) of ER+ PDX tumors treated in vivo; parameters: species or system mice; details: 14 days; for BCSC activity measured by MFE and ALDH enzymatic activity: tamoxifen 10 mg/kg/day oral, fulvestrant 200 mg/kg/week s.c.
Protocol: as §1
as §2, with “Xenografts were collected in ice cold DMEM media for live cell assays, histological analysis and RNA and protein extraction. Patient-derived xenograft single cell suspension was obtained using a collagenase-hyaluronidase mixture for digestion (Stem Cell Technologies).” left out
Single cell suspensions of freshly isolated ER+ primary and metastatic patient-derived samples were cultured for 7-9 days (primary cells) in mammosphere colony assays in the presence of ethanol, 10^−6 M 4-hydroxy-tamoxifen or 10^−7 M fulvestrant. […] Mammosphere formation efficiency (MFE) was calculated by dividing the number of mammospheres formed (≧50 μm) by the original number of single cells seeded (500 cells/cm^2 for primary cells and 200 cells/cm^2 for cell lines) and is expressed as fold change normalised to control or as the mean percentage of MFE (Shaw et al., 2012).
Dissociated single cells were suspended in Aldefluor assay buffer containing an ALDH substrate, bodipyaminoacetaldehyde (BAAA) at […], and incubated for 45 min at 37° C. […] Data were acquired on a LSR II (BD) flow cytometer and analysed using the BD FACSDiva™ software.

[3] = system: MCF-7, T47D and ZR-75-1 cells; experiment: BCSC activity (MFE, ALDH-positive cells) of pre-treated ER+ cell lines; assay type: cell-based, human; details: for ALDH-positive cells / mammosphere-forming activity: 6 days in vitro pre-treatment, 10^−6 M tamoxifen, 10^−7 M fulvestrant
Protocol: Single cell suspensions of freshly isolated ER+ primary and metastatic patient-derived samples were cultured for 7-9 days (primary cells) in mammosphere colony assays in the presence of ethanol, 10^−6 M 4-hydroxy-tamoxifen or 10^−7 M fulvestrant. Primary mammospheres were dissociated and replated in secondary mammosphere suspension culture for a further 7-9 days to measure self-renewal. Patient-derived xenograft cells were cultured for 7-10 days. For cell lines, cells were pre-treated in adherence and then cultured for 5 days in mammosphere culture. Mammosphere formation efficiency (MFE) was calculated by dividing the number of mammospheres formed (≧50 μm) by the original number of single cells seeded (500 cells/cm^2 for primary cells and 200 cells/cm^2 for cell lines) and is expressed as fold change normalised to control or as the mean percentage of MFE (Shaw et al., 2012).
Dissociated single cells were suspended in Aldefluor assay buffer containing an ALDH substrate, bodipyaminoacetaldehyde (BAAA) at […], and incubated for 45 min at 37° C. To distinguish between ALDH-positive and -negative cells, a fraction of cells was incubated under identical conditions in the presence of a 2-fold molar excess of the ALDH inhibitor, diethylaminobenzaldehyde (DEAB). Mouse cells were excluded from the FACS analysis with anti-mouse MHC Class I (H-2Kd) antibody conjugated with Pacific Blue (BioLegend, 116616). 7-aminoactinomycin D (7AAD, BD) was added for dead cell exclusion. Data were acquired on a LSR II (BD) flow cytometer and analysed using the BD FACSDiva™ software.
MCF7, T47D and ZR-75-1 cell lines were purchased from American Tissue Culture Collection (ATCC) and cultured in DMEM/F-12, GlutaMAX (Gibco) with 10% FBS (Gibco). Cells were treated for 3 days or 6 days with ethanol (control), 10^-6M 4-OH-tamoxifen or 10^−7M fulvestrant and/or with 10 μM of gamma-secretase inhibitor RO4929097 (Cellagen Technology) or DMSO (control).

[4] = system: metastatic (BB3RC31) PDX cells; experiment: Secondary tumor formation of cells from PDX tumors treated in vivo; parameters: species or system mice; details: 90 days post-implantation; for tumor-initiating capacity in secondary mouse hosts: cells from PDX tumors treated in vivo
Protocol: as §2
To determine tumor initiation capacity of MCF-7 cells or metastatic (BB3RC31) PDX cells treated in vitro or in vivo, respectively, Nude or NSG mice were injected subcutaneously with cells in mammosphere media mixed 1:1 with Matrigel. 8 μg/ml of 17-beta estradiol was administered in drinking water or 90-day slow release estrogen pellets were implanted sub-cutaneously into mice two days before cell injection (0.72 mg, Innovative Research of America). Serial limiting dilution implantation of MCF-7 cells (10.000, 1.000, 100, 10 cells) and the Extreme Limiting Dilution Analysis (ELDA) software (The Walter and Eliza Hall Institute of Medical Research) were used to perform calculations (95% CI) of tumor initiation. Positive tumor growth was assessed at day 60 or 90 after cell injection by determining the mice bearing a tumor greater than 100 mm^3 and is represented as mice positive for growth/mice tested (n=4 per condition in all experiments). p values were calculated with Chi-squared test.

CC/C(=C(\c1ccccc1)c1ccc(OCCN(C)C)cc1)c1ccccc1 [tamoxifen, (Z)-2-[4-(1,2-diphenylbut-1-enyl)phenoxy]-N,N-dimethylethanamine]
proliferation marker Ki67 [1]: decrease; also recorded: reduced
tumor growth [1]: reduced
PR expression ([1]; HBC×34 (early BC) PDX): down-regulated
BCSC activity measured by MFE and ALDH enzymatic activity [2]: paradoxical increase; also recorded: increasing
ALDH-positive cells [3]: enriched
mammosphere-forming activity [3]: enriched
tumor-initiating capacity in secondary mouse hosts [4]: stimulation of tumorigenicity

CC(C)(C(=O)NCC(F)(F)C(F)(F)F)C(=O)N[C@@H]1C(=O)Nc2ccccc2-c2ccccc21 [RO4929097]
proliferation marker Ki67 [1]: no impact
tumor growth [1]: no impact
ER and PR protein expression levels [1]: not modified
endocrine stimulated BCSC activity (MFE and Aldefluor activity) ([2]; RO4929097 3 mg/kg/day oral with tamoxifen or fulvestrant): significantly inhibited
BCSC activity as assayed by MFE and ALDH-positive cells ([3]; 3 days tamoxifen or fulvestrant concomitantly with RO4929097 10 μM): reduced
tumor-initiating capacity in secondary mouse hosts [4]: significantly reduced
stimulation of tumorigenicity following in vivo tamoxifen and fulvestrant treatment ([4]; combination with RO4929097): completely reversed

C[C@]12CC[C@@H]3c4ccc(O)cc4C[C@@H](CCCCCCCCC[S+]([O-])CCCC(F)(F)C(F)(F)F)[C@H]3[C@@H]1CC[C@@H]2O (stereo partly drawn) [fulvestrant]
proliferation marker Ki67 [1]: decrease; also recorded: reduced
tumor growth [1]: reduced
ER and PR protein expression levels [1]: reduced
BCSC activity measured by MFE and ALDH enzymatic activity [2]: paradoxical increase; also recorded: increasing
ALDH-positive cells [3]: enriched
mammosphere-forming activity [3]: enriched
tumor-initiating capacity in secondary mouse hosts [4]: stimulation of tumorigenicity
